Assay [1] has as its target PmiR (PA0797), wild type (Pseudomonas aeruginosa PAO1). The experiment in a line: SEC.
Assay [2] deals with T1, truncated PmiR protein (amino acids 15 to 232) (Pseudomonas aeruginosa, UniProt Q9I5E1).
T1 sequence (Q9I5E1 15-232): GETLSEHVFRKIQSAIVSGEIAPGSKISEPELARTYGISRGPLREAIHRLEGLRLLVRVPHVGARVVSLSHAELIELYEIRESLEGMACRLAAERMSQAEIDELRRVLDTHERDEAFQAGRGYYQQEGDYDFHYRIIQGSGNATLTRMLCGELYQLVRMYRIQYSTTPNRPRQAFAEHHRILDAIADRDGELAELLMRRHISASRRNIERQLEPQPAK
The experiment in a line: ITC. It is filed as binding.

The target in assay [3] is T2, PmiR (Pseudomonas aeruginosa, UniProt Q9I5E1).
T2 sequence (Q9I5E1 1-240): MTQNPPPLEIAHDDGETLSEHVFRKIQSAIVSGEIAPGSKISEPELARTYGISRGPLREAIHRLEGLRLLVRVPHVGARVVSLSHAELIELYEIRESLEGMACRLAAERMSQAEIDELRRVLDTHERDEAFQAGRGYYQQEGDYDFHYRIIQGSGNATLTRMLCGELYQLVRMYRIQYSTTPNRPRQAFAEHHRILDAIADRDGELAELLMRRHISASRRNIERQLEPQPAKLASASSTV
The experiment in a line: ITC. It is filed as binding.

The target in assay [4] is T3, PrpB (Pseudomonas aeruginosa, UniProt Q9I5E2).
T3 sequence (Q9I5E2 1-298): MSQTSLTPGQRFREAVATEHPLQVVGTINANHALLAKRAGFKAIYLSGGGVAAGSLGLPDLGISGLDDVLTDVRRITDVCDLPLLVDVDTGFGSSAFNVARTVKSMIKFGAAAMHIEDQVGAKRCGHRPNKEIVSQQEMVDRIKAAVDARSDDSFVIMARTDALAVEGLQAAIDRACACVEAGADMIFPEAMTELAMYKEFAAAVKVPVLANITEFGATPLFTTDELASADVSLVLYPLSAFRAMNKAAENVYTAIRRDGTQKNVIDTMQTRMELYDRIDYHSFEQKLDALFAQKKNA
The experiment in a line: HPLC-UV, A214. It is filed as biochemical. The note with it: 1.0 mM; 1 mM tris-HCl pH 7.5.

For orientation: stoichiometry N means a count of units in the complex or per binding partner. In the case of “PmiR (PA0797), wild type (natural protein)”, in assay [1], the stoichiometry N was 2. A word on the Kd: it is the equilibrium constant for the complex coming apart. A low value points to a tighter complex. Regarding `C[C@](O)(C(=O)O)[C@H](CC(=O)O)C(=O)O` (racemic) [MIC], the Kd in assay [2] turned out to be 62.9 µM; in assay [3], 21.8 µM. `CC(=O)C(=O)O` [pyruvate]: the “HPLC-UV, A214” value in assay [4] is “PrpB, methylisocitrate lyase, was the last but critical enzyme to convert MIC to succinate and pyruvate”. On to `O=C(O)C[C@H](C(=O)O)[C@@H](O)C(=O)O` [isocitrate], for which the Kd in assay [3] was 64.1 µM.

The values above are taken from publication PMC9728974 (Science Advances, 2022).
